From patent publication US4399283A, “Pharmaceutical salts of 4'-(9-acridinylamino)-methanesulfon-m-anisidide” (Warner Lambert Company, priority 1981, dated 1983)

Legend:
[1] = format: physicochemical; details: 10 mg/ml, after storing at 5 °C
Description: The salts of th present invention allow one to prepare solutions of m-AMSA without the aid of dimethylacetamide. Depending upon the salt, concentration and temperature,standing may result in certain of the solutions of salts forming gels. However, a salt need only remain in solution for a period long enough for it to be administered to a patient.

mice = details: literature (Cain et al.); cited from earlier work

COc1cc(NS(C)(=O)=O)ccc1Nc1c2ccccc2nc2ccccc12 [gluconate, 4'-(9-acridinylamino)methanesulfon-m-anisidide D-gluconate]
Return of gelled solution to fluid state by warming to room temperature and shaking [1]: this could not be achieved

COc1cc(NS(C)(=O)=O)ccc1Nc1c2ccccc2nc2ccccc12 [m-AMSA, 4'-(9-acridinylamino)-methanesulfon-m-anisidide]
Activity in treating mammals in studies using mice (mice): high degree of activity
